The values that follow come from US20100028459A1, “NUTRITIONAL SUPPLEMENT COMPOSITION FOR TREATMENT OF OCULAR DISEASES” (priority 2006, published 2010).

A short description of test [1]: lutein supplementation and AMD incidence (our studies). Type of test: in vivo. As to conditions: supplementation of 10 mg/day. The procedure:
Therefore, the subject composition preferably provides preferably 10 mg of pure lutein per composition, e.g. per capsule.

The conditions of test [2]: lutein supplementation in human; cited from earlier work.
The conditions of test [3]: AMD patients; cited from earlier work.

`CC1=C[C@H](O)CC(C)(C)[C@H]1/C=C/C(C)=C/C=C/C(C)=C/C=C/C=C(C)/C=C/C=C(C)/C=C/C1=C(C)C[C@@H](O)CC1(C)C` [Lutein]: the AMD incidence entry in test [1] was “decreases the AMD incidence”. For the same compound, the macular pigment entry in test [2] is “increased macular pigment”.

Turning to Zinc, the visual field loss result in test [3] was “slows visual field loss”.
